Measured values reported in the CheMixHub viscosity set.
± gives the uncertainty stated by the source.

Assay: xn = mol fraction of the nth substance listed
Conditions: 101.33 kPa

CCCCCCCCCCCC(=O)OCC + CCCCO
Conditions | viscosity [mPa·s]
293.15 K, x1 = 0.1001 | 2.703 ± 0.031
293.15 K, x1 = 0.2001 | 2.643 ± 0.03
293.15 K, x1 = 0.3002 | 2.654 ± 0.031
293.15 K, x1 = 0.4 | 2.718 ± 0.031
293.15 K, x1 = 0.5001 | 2.8 ± 0.032
293.15 K, x1 = 0.6002 | 2.891 ± 0.033
293.15 K, x1 = 0.6997 | 3.008 ± 0.034
293.15 K, x1 = 0.8 | 3.111 ± 0.036
293.15 K, x1 = 0.9001 | 3.225 ± 0.037
293.15 K, x2 = 0.1019 | 3.227 ± 0.13
293.15 K, x2 = 0.2001 | 3.082 ± 0.13
293.15 K, x2 = 0.3 | 2.969 ± 0.12
293.15 K, x2 = 0.4001 | 2.866 ± 0.12
293.15 K, x2 = 0.5 | 2.781 ± 0.11
293.15 K, x2 = 0.6 | 2.699 ± 0.11
293.15 K, x2 = 0.7 | 2.641 ± 0.11
293.15 K, x2 = 0.8 | 2.624 ± 0.11
293.15 K, x2 = 0.8999 | 2.688 ± 0.11
298.15 K, x2 = 0.1019 | 2.872 ± 0.12
298.15 K, x2 = 0.2001 | 2.757 ± 0.11
298.15 K, x2 = 0.3 | 2.645 ± 0.11
298.15 K, x2 = 0.4001 | 2.566 ± 0.11
298.15 K, x2 = 0.5 | 2.477 ± 0.1
298.15 K, x2 = 0.6 | 2.409 ± 0.099
298.15 K, x2 = 0.7 | 2.363 ± 0.097
298.15 K, x2 = 0.8 | 2.342 ± 0.096
298.15 K, x2 = 0.8999 | 2.395 ± 0.098
303.15 K, x1 = 0.0997 | 2.129 ± 0.025
303.15 K, x1 = 0.2001 | 2.093 ± 0.025
303.15 K, x1 = 0.2998 | 2.118 ± 0.025
303.15 K, x1 = 0.3532 | 2.142 ± 0.025
303.15 K, x1 = 0.4999 | 2.233 ± 0.026
303.15 K, x1 = 0.5982 | 2.313 ± 0.027
303.15 K, x1 = 0.6997 | 2.386 ± 0.028
303.15 K, x1 = 0.7986 | 2.474 ± 0.029
303.15 K, x1 = 0.9006 | 2.582 ± 0.03
303.15 K, x2 = 0.1019 | 2.575 ± 0.11
303.15 K, x2 = 0.2001 | 2.468 ± 0.1
303.15 K, x2 = 0.3 | 2.391 ± 0.098
303.15 K, x2 = 0.4001 | 2.309 ± 0.095
303.15 K, x2 = 0.5 | 2.241 ± 0.092
303.15 K, x2 = 0.6 | 2.164 ± 0.089
303.15 K, x2 = 0.7 | 2.122 ± 0.087
303.15 K, x2 = 0.8 | 2.092 ± 0.086
303.15 K, x2 = 0.8999 | 2.131 ± 0.087
308.15 K, x2 = 0.1019 | 2.311 ± 0.095
308.15 K, x2 = 0.2001 | 2.225 ± 0.091
308.15 K, x2 = 0.3 | 2.147 ± 0.088
308.15 K, x2 = 0.4001 | 2.084 ± 0.085
308.15 K, x2 = 0.5 | 2.015 ± 0.083
308.15 K, x2 = 0.6 | 1.943 ± 0.08
308.15 K, x2 = 0.7 | 1.9 ± 0.078
308.15 K, x2 = 0.8 | 1.868 ± 0.077
308.15 K, x2 = 0.8999 | 1.896 ± 0.078
313.15 K, x1 = 0.1 | 1.744 ± 0.021
313.15 K, x1 = 0.1724 | 1.724 ± 0.021
313.15 K, x1 = 0.2999 | 1.72 ± 0.021
313.15 K, x1 = 0.4004 | 1.742 ± 0.021
313.15 K, x1 = 0.4998 | 1.781 ± 0.021
313.15 K, x1 = 0.5998 | 1.818 ± 0.022
313.15 K, x1 = 0.7011 | 1.862 ± 0.022
313.15 K, x1 = 0.7997 | 1.927 ± 0.023
313.15 K, x1 = 0.8926 | 1.979 ± 0.023
313.15 K, x2 = 0.1019 | 2.112 ± 0.087
313.15 K, x2 = 0.2001 | 2.018 ± 0.083
313.15 K, x2 = 0.3 | 1.946 ± 0.08
313.15 K, x2 = 0.4001 | 1.881 ± 0.077
313.15 K, x2 = 0.5 | 1.816 ± 0.074
313.15 K, x2 = 0.6 | 1.754 ± 0.072
313.15 K, x2 = 0.7 | 1.709 ± 0.07
313.15 K, x2 = 0.8 | 1.685 ± 0.069
313.15 K, x2 = 0.8999 | 1.695 ± 0.069
318.15 K, x2 = 0.1019 | 1.934 ± 0.079
318.15 K, x2 = 0.2001 | 1.855 ± 0.076
318.15 K, x2 = 0.3 | 1.787 ± 0.073
318.15 K, x2 = 0.4001 | 1.725 ± 0.071
318.15 K, x2 = 0.5 | 1.66 ± 0.068
318.15 K, x2 = 0.6 | 1.605 ± 0.066
318.15 K, x2 = 0.7 | 1.563 ± 0.064
318.15 K, x2 = 0.8 | 1.529 ± 0.063
318.15 K, x2 = 0.8999 | 1.534 ± 0.063
323.15 K, x2 = 0.1019 | 1.745 ± 0.072
323.15 K, x2 = 0.2001 | 1.674 ± 0.069
323.15 K, x2 = 0.3 | 1.615 ± 0.066
323.15 K, x2 = 0.4001 | 1.563 ± 0.064
323.15 K, x2 = 0.5 | 1.508 ± 0.062
323.15 K, x2 = 0.6 | 1.447 ± 0.059
323.15 K, x2 = 0.7 | 1.399 ± 0.057
323.15 K, x2 = 0.8 | 1.374 ± 0.056
323.15 K, x2 = 0.8999 | 1.364 ± 0.056
